Patent publication EP3807270B1, “NOVEL HETEROARYL HETEROCYCLYL COMPOUNDS FOR THE TREATMENT OF AUTOIMMUNE DISEASE” (F. Hoffmann-La Roche AG, priority 2018, dated 2019)

target: T1, hTLR9 (Homo sapiens, UniProt Q9NR96); assay: HEK293-Blue-hTLR-9 cells assay (SEAP reporter, ODN2006 stimulation); assay type: cell-based; set-up: host or cells: HEK293 (HEK-Blue); conditions: HEK293-Blue-hTLR9 cells, ODN2006, 20 hrs; read-out: HEK/hTLR9 IC50
T1 sequence (Q9NR96 26-1032): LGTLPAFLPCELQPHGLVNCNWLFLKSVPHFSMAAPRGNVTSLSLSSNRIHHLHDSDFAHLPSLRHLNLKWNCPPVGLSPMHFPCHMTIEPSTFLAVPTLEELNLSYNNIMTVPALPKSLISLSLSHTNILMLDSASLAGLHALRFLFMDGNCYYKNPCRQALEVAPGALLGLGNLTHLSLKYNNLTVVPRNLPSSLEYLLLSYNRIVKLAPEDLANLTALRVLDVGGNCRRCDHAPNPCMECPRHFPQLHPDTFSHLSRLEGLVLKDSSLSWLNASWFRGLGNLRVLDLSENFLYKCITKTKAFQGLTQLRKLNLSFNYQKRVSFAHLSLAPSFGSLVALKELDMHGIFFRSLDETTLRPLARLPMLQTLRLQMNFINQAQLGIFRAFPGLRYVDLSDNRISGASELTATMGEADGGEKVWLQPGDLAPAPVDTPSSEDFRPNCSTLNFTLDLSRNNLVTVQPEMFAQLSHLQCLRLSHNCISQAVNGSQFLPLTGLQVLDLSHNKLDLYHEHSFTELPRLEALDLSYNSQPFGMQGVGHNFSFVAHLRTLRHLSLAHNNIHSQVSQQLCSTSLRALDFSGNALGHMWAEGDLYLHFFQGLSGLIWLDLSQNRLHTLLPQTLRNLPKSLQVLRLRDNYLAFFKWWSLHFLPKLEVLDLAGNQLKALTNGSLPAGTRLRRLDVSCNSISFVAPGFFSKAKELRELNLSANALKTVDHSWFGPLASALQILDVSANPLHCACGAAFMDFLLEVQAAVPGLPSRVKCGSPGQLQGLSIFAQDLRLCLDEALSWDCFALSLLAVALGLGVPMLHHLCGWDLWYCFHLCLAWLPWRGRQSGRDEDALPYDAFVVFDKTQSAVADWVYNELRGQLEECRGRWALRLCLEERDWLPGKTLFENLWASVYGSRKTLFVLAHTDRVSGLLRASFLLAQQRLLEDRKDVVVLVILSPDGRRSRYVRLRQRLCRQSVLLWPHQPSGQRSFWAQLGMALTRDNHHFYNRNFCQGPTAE
Source text: A stable HEK293-Blue-hTLR-9 cell line was purchased from InvivoGen (Cat.#: hkb-htlr9, San Diego, California, USA). These cells were originally designed for studying the stimulation of human TLR9 by monitoring the activation of NF-κB. A SEAP (secreted embryonic alkaline phosphatase) reporter gene was placed under the control of the IFN-β minimal promoter fused to five NF-κB and AP-1-binding sites. The SEAP was induced by activating NF-κB and AP-1 via stimulating HEK-Blue hTLR9 cells with TLR9 ligands. Therefore, the reporter expression was declined by TLR9 antagonist under the stimulation of a ligand, such as ODN2006 (Cat.#: tlrl-2006-1, Invivogen, San Diego, California, USA), for incubation of 20 hrs. The cell culture supernatant SEAP reporter activity was determined using QUANTI-Blue™ kit (Cat.#: rep-qb 1, Invivogen, San Diego, California, USA) at a wavelength of 640 nm, a detection medium that turns purple or blue in the presence of alkaline phosphatase.
HEK293-Blue-hTLR9 cells were incubated at a density of 250,000-450,000 cells/mL in a volume of 170 µL in a 96-well plate in Dulbecco's Modified Eagle's medium (DMEM) containing 4.5 g/L glucose, 50 U/mL penicillin, […], […], 2 mM L-glutamine, 10% (v/v) heat-inactivated fetal bovine serum with addition of 20 µL test compound in a serial dilution in the presence of final DMSO at 1% and 10 µL of 20uM ODN2006 in above DMEM, perform incubation under 37 °C in a CO2 incubator for 20 hrs. Then 20 µL of the supernatant from each well was incubated with 180 µL Quanti-blue substrate solution at 37 °C for 2 hrs and the absorbance was read at 620-655 nm using a spectrophotometer. The signaling pathway that TLR9 activation leads to downstream NF-κB activation has been widely accepted, and therefore similar reporter assay was modified for evaluating TLR9 antagonist.

IC50 [nM]	SMILES
72	C[C@@H]1CN(c2ccc(C#N)c3ncccc23)C[C@H](CN2CC3(C2)CN(c2cnc4c(c2)CNCC4)CCO3)O1 [Example 47, 5-[(2R,6S)-2-methyl-6-[[8-(5,6,7,8-tetrahydro-1,6-naphthyridin-3-yl)-5-oxa-2,8-diazaspiro[3.5]nonan-2-yl]methyl]morpholin-4-yl]quinoline-8-carbonitrile]
48	C[C@@H]1CN(c2ccc(C#N)c3ncccc23)C[C@H](CN2CC3(C2)CN(c2ccc4c(n2)CCNC4)CCO3)O1 [Example 49, 5-[(2R,6S)-2-methyl-6-[[8-(5,6,7,8-tetrahydro-1,6-naphthyridin-2-yl)-5-oxa-2,8-diazaspiro[3.5]nonan-2-yl]methyl]morpholin-4-yl]quinoline-8-carbonitrile]
168	C[C@@H]1CN(c2ccc(C#N)c3ncccc23)C[C@H](CN2CCN(c3cnc4c(c3)CNCC4)C(C)(C)C2)O1 [Example 56, 5-[(2S,6R)-2-[[3,3-dimethyl-4-(5,6,7,8-tetrahydro-1,6-naphthyridin-3-yl)piperazin-1-yl]methyl]-6-methyl-morpholin-4-yl]quinoline-8-carbonitrile]
90	C[C@@H]1CN(c2ccc(C#N)c3nccnc23)C[C@H](CN2CCN(c3cnc4c(c3)CNC4)CC2)O1 [Example 25, 8-[(2S,6R)-2-[[4-(6,7-dihydro-5H-pyrrolo[3,4-b]pyridin-3-yl)piperazin-1-yl]methyl]-6-methyl-morpholin-4-yl] quinoxaline-5-carbonitrile]
6620	COc1ccc(N2CCN(C[C@H]3CN(c4ccc(C#N)c5ncccc45)C[C@@H](C)O3)CC2)cc1 [Example R1, 5-[(2S,6R)-2-[[4-(4-methoxyphenyl)piperazin-1-yl]methyl]-6-methyl-morpholin-4-yl]quinoline-8-carbonitrile, reference compound]
72	C[C@@H]1CN(c2ccc(C#N)c3ncccc23)C[C@H](CN2CCN(c3cc4c(cn3)CCNC4)CC2)O1 [Example 20, 5-[(2R,6S)-2-methyl-6-[[4-(5,6,7,8-tetrahydro-2,6-naphthyridin-3-yl)piperazin-1-yl]methyl]morpholin-4-yl]quinoline-8-carbonitrile]
36	C[C@@H]1CN(c2ccc(C#N)c3ncccc23)C[C@H](CN2CCC(Nc3ncc4c(n3)CCNC4)C2)O1 (stereo partly drawn) [Example 57, 5-[(2R,6S)-2-methyl-6-[[3-(5,6,7,8-tetrahydropyrido [4,3-d]pyrimidin-2-ylamino)pyrrolidin-1-yl]methyl]morpholin-4-yl] quinoline-8-carbonitrile]
124	C[C@@H]1Cc2cc(N3CCN(C[C@H]4CN(c5ccc(C#N)c6nccnc56)C[C@@H](C)O4)CC3)ncc2CN1 (single isomer, unassigned) [Example 83]
45	C[C@@H]1CN(c2ccc(C#N)c3ncccc23)C[C@H](CN2CCN(c3ccc4c(c3)C(O)CNC4)CC2)O1 (stereo partly drawn) [Example 22, 5-[(2S,6R)-2-[[4-(4-hydroxy-1,2,3,4-tetrahydroisoquinolin-6-yl)piperazin-1-yl]methyl]-6-methyl-morpholin-4-yl]quinoline-8-carbonitrile]
91	C[C@@H]1CN(c2ccc(C#N)c3ncccc23)C[C@H](CN2CCN(c3cc4c(cn3)CN[C@@H](C)C4)CC2)O1 (single isomer, unassigned) [Example 71]
112	C[C@@H]1CN(c2ccc(C#N)c3ncccc23)C[C@H](CN2CCN(c3ccc4c(n3)[C@H](C)NC4)CC2)O1 (single isomer, unassigned) [Example 66]
122	C[C@@H]1CN(c2ccc(C#N)c3ncccc23)C[C@H](CN2CCN(c3ncc4c(n3)CCNC4)CC2)O1 [Example 29, 5-[(2R,6S)-2-methyl-6-[[4-(5,6,7,8-tetrahydropyrido[4,3-d]pyrimidin-2-yl)piperazin-1-yl]methyl]morpholin-4-yl]quinoline-8-carbonitrile]
84	C[C@@H]1CN(c2ccc(C#N)c3ncccc23)C[C@H](CN2CCN(c3cnc4c(c3)CN[C@@H]4C)CC2)O1 (single isomer, unassigned) [Example 68]
63	C[C@@H]1CN(c2ccc(C#N)c3ncccc23)C[C@H](CN2CCN(c3cc4c(cn3)CNCC4)CC2)O1 [Example 19, 5-[(2R,6S)-2-methyl-6-[[4-(5,6,7,8-tetrahydro-2,7-naphthyridin-3-yl)piperazin-1-yl]methyl]morpholin-4-yl]quinoline-8-carbonitrile]
89	C[C@@H]1CN(c2ccc(C#N)c3ncccc23)C[C@H](CN2CCN(c3cc4c(cn3)CCN[C@@H]4C)CC2)O1 (single isomer, unassigned) [Example 74]
82	C[C@@H]1CN(c2ccc(C#N)c3ncccc23)C[C@H](CN2CCN(c3cc4c(cn3)[C@@H](C)NCC4)CC2)O1 (single isomer, unassigned) [Example 73]
100	C[C@@H]1CN(c2ccc(C#N)c3nccnc23)C[C@H](CN2CCN(c3cc4c(cn3)CCNC4)CC2)O1 [Example 80, 8-[(2R,6S)-2-methyl-6-[[4-(5,6,7,8-tetrahydro-2,6-naphthyridin-3-yl)piperazin-1-yl]methyl]morpholin-4-yl]quinoxaline-5-carbonitrile]
133	C[C@@H]1CN(c2ccc(C#N)c3ncccc23)C[C@H](CN2CCN(c3ccc4c(c3)C(O)CN(C)C4)CC2)O1 (stereo partly drawn) [Example 59, 5-[(2S,6R)-2-[[4-(4-hydroxy-2-methyl-3,4-dihydro-1H-isoquinolin-6-yl)piperazin-1-yl]methyl]-6-methyl-morpholin-4-yl]quinoline-8-carbonitrile]
64	C[C@@H]1CN(c2ccc(C#N)c3ncccc23)C[C@H](CN2CCN(c3ccc4c(c3)CCNC4)CC2)O1 [Example 5, 5-[(2R,6S)-2-methyl-6-[[4-(1,2,3,4-tetrahydroisoquinolin-6-yl)piperazin-1-yl]methyl]morpholin-4-yl]quinoline-8-carbonitrile]
83	C[C@@H]1CN(c2ccc(C#N)c3ncccc23)C[C@H](CN2CCN(c3ccc4c(n3)CNCC4)CC2)O1 [Example 69, 5-[(2R,6S)-2-methyl-6-[[4-(5,6,7,8-tetrahydro-1,7-naphthyridin-2-yl)piperazin-1-yl]methyl]morpholin-4-yl]quinoline-8-carbonitrile]
69	C[C@@H]1CN(c2ccc(C#N)c3ncccc23)C[C@H](CN2CC3[C@H](C2)OCCN3c2ccc3c(n2)CCNC3)O1 (stereo in doubt) [Example 53, cis-5-[(2R,6S)-2-methyl-6-[[4-(5,6,7,8-tetrahydro-1,6-naphthyridin-2-yl)-2,3,4a,5,7,7a-hexahydropyrrolo[3,4-b][1,4]oxazin-6-yl]methyl]morpholin-4-yl]quinoline-8-carbonitrile]
81	C[C@@H]1CN(c2ccc(C#N)c3ncccc23)C[C@H](CN2CCN(c3ccc4c(n3)[C@@H](C)NC4)CC2)O1 (single isomer, unassigned) [Example 65]
143	C[C@@H]1CN(c2ccc(C#N)c3ncccc23)C[C@H](CN2CCN(c3ncc4c(n3)CNCC4)CC2)O1 [Example 12, 5-[(2R,6S)-2-methyl-6-[[4-(5,6,7,8-tetrahydropyrido[3,4-d]pyrimidin-2-yl)piperazin-1-yl]methyl]morpholin-4-yl]quinoline-8-carbonitrile]
